One assay has as its system apple stalk slices. Description: rooting regeneration on apple stalk slices with elicitors. The format is cell-based. Conditions: roots, apple, 1 μM indolebutyric or indoleacetic acid, 1 or 3 days. The method, then: The effect of the elicitors on rooting regeneration on apple stalk slices was studied. The stalk slices were incubated on medium with elicitors in combination with a sub-optimal auxin concentration (1 μM indolebutyric acid or 1 μM indoleacetic acid) which were added for 1 or 3 days to the plant tissue for testing. The increase was measured in the number of regenerated roots compared to the auxin control.

A further assay relates to cut flowers (carnations). Description: retarding the aging of cut flowers. In kind it is in vivo, carnation. The method, then:
The DMF was evaporated and the remaining solid was dissolved in methanol and filtered. Diluted hydrochloric acid was added to the methanol solution. After 2 hours at room temperature the solvent was evaporated and G-A-A was obtained.

A further assay relates to apple. Description: roots per tissue fragment in apple. In kind it is cell-based. From the text: An apple IAA may induce a maximum of 3.5 roots per tissue fragment, while IAA-N-BSA induces a maximum of 8 roots per tissue fragment. Very recalcitrant trees like summer oak and cork oak can be rooted to a much higher percentage than with any of the conventionally applied rooting powders. The compounds described in EXAMPLE 3 and together with elicitors in Table 1 show similar effects.

For another assay, the system named is apple and rose. As to the kind of experiment: rooting in apple and rose, stem-disk method. The format is cell-based. The following applies: rooting powder, stem-disks. The protocol: The auxin compounds were tested with respect to rooting in apple and rose
b) Tests are performed by the stem-disk method as published by Van der Krieken et al., Plant Cell Reports (1993), vol. 12, 203-206, in which the number of roots of a large number of stem-disks cut from a particular plant are counted and treated with rooting powder containing in this case the compounds described.

The test system of assay [1] is Carnations (cultivar Miledy). As to the kind of experiment: senescence of carnations after simulated dry transport. In kind it is in vivo, carnation. The protocol:
The flowers were treated for one day with silver thiosulfate (STS), t-BOC-AOA, or with water in the case of controls. The flowers were then subjected to simulated dry transport conditions: 4 days at 8° C. and a relative humidity of 75%. The bottom 5 cm of each stem was then removed, and the flowers were incubated on water for 2 hours at 8° C. and a relative humidity of 75%. The flowers were then transferred to a climate room with standard flower development conditions (20° C., relative humidity of 75%, light level of 1000 lux). Senescence of the flowers was then determined every day. If flowers started wilting (mostly at the edges of the petals) or changed color they were no longer in the category of “flowers in a perfect stage” (see Table 3).

In a further assay the test system is plantroots. As to the kind of experiment: root induction by chemically modified auxins on various plants. Conditions: in vivo. The text has this:
Attaching IAA to BSA is done to increase the amount of IAA administered to the roots. Up to 32 IAA molecules can be attached to BSA in 2 different ways. Either as N-conjugate of IAA or as C-conjugate. Upon addition of the IAA-BSA to plantroots, the IAA is split off in the root and leads to the availability of IAA during a longer period allowing the root tissue to become sensitive.

The next assay relates to rose. Description: rooting powder comparison, rooting and development of scions, rose. The format is in vivo. Details: key: 1: The compounds with the best relative overall effect on rooting and development were placed in category I; categories which ranged from 1 to 6. The text has this:
(§1) d) In Table 2 standard indol butyric acid (IBA), which is the active component in most currently used rooting powders, is compared with indol hexanolic acid (IHA) and two BSA adducts, both—coupled, namely IBA and indole acetic acid (BSA-N-IAA). The effect on rooting and the plant development (stem growth, outgrowth of new shoots, synchronicity of growth of a population of plants) were inter alia factors determining the place in the categories which ranged from 1 to 6. The compounds with the best relative overall effect on rooting and development were placed in category I. Rooting and subsequent development of scions for different types of herbaceous and woody plants differs largely for those types of plants. A rose cultivar, “enermus stur cinq”, was used as an example of a recalcitrant woody plant. The chrysanthemum species “regan” is an example of an easy to root herbaceous plant.

The test system of another assay is chrysanthemum. Description: rooting powder comparison, rooting and development of scions, chrysanthemum. In kind it is in vivo. Details: key: 1: The compounds with the best relative overall effect on rooting and development were placed in category I; categories which ranged from 1 to 6.
Source text: as §1

The next assay deals with carnation. As to the kind of experiment: rooting powder comparison, rooting and development of scions, carnation. In kind it is in vivo. Details: key: 1: The compounds with the best relative overall effect on rooting and development were placed in category I; categories which ranged from 1 to 6.
Source text: as §1

Assay [2] concerns rose, chrysanthemum, carnation. Description: rooting powder comparison, average over species. The following applies: for average category: average over the species tested. In kind it is in vivo.
Source text: as §1

The subject of the next assay is tissue explants of rose. Description: shoot formation on tissue explants of rose. In kind it is cell-based. The method, then:
It was also observed that tissue explants of rose when treated with IBA (normal addition) or IHA, respectively, formed about 50 times more shoots (2 shoots versus 100 per 20 tissue explants) in the latter case.
In the studies for new applications of PGRs and/or elicitors, which were performed within the framework of the present invention, several new and unexpected observations were made. […] Furthermore, the inventors established that elicitors do cause a statistically significant growth retardation of all tissues, as can be illustrated for rose shoots. This effect was enhanced by PGR(s), in casu antigibberelins, i.e. paclobutrasol. […] Finally the observation was made that when tissue explants of rose were treated with respectively IBA (normal addition) or IHA, in the last case about 50 times more shoots were formed (2 shoots versus 100 per 20 tissue explants).

[3] abbreviates: 7 d after the start of the experiment.
The mark [4] stands for this setting: 8 d after the start of the experiment.
[5] abbreviates: 9 d after the start of the experiment.
Where [6] appears, read: 10 d after the start of the experiment.
Setting [7] is: 11 d after the start of the experiment.
[8] abbreviates: 12 d after the start of the experiment.
The mark [9] stands for this setting: 13 d after the start of the experiment.
Setting [10] is: 14 d after the start of the experiment.
Where [11] appears, read: 15 d after the start of the experiment.
The mark [12] stands for this setting: 16 d after the start of the experiment.
Where [13] appears, read: 17 d after the start of the experiment.
Setting [14] is: 18 d after the start of the experiment.
The mark [15] stands for this setting: 19 d after the start of the experiment.
[16] abbreviates: 20 d after the start of the experiment.
Setting [17] is: 21 d after the start of the experiment.
[18] abbreviates: 22 d after the start of the experiment.
The mark [19] stands for this setting: rose enermus stur cinq (recalcitrant woody plant).
Where [20] appears, read: chrys. regan (easy to root herbaceous plant).

In the case of `CC(=O)Nc1ccc(O)cc1` [4-acetamidophenol], the “increased regeneration in relation to control (auxin alone)” value (from here on “increased regeneration in relation”) in the assay with apple stalk slices (elicitor 1 μM) worked out at 75%.
As to `CC(C)(NC(=O)CCC(=O)NC(C)(C)C(=O)O)C(=O)O` [A-S-A], the “activity in retarding the aging of the flowers, times relative to non-modified AIB” value in the assay on cut flowers (carnations) (in water, concentration 5×10^−5 to 10^−3 M, carnations) is 50.
As for `O=C(O)Cc1c[nH]c2ccccc12` [IAA, indole-3-acetic acid, reference compound], in the assay with apple, the “maximum of roots per tissue fragment” value came to 3.5 roots per tissue fragment.
Take `CC(C)(NC(=O)CCCc1c[nH]c2ccccc12)C(=O)O` [IBA-AIB]: in the assay on apple and rose, the “rooting compared with standard hormone treatment / IBA alone” value is “more active than the standard hormone treatment”.
On to `C=CC(C)(C)OC[C@H]1O[C@H](O[C@@H]2C3=C([C@H](C)COC(C)=O)C[C@H](O)[C@]3(C)/C=C3/[C@@H](COC)CC[C@H]3[C@@H](C)[C@H]2O)[C@H](O)[C@@H](OC(C)=O)[C@@H]1O` [fusicocine], for which, in the assay on apple stalk slices (elicitor 0.01 μM), the “increased regeneration in relation” value is 75%.
As for `CC/C=C\C[C@H]1C(=O)CC[C@@H]1CC(=O)O` [jasmonic acid], the “increased regeneration in relation” value in the assay with apple stalk slices (elicitor 0.01 μM) came out at 210%.
As for `CC(C)(C)OC(=O)NOCC(=O)O` [t-Boc-AOA, tertiair-butyloxycarbonylaminooxyacetic acid], the “Percentage of flowers in the perfect stage after treatment” value (shortened to “Percentage of flowers”) in [1] (setting [3]), in [1] (setting [4]), in assay [1] (setting [5]), in assay [1] (setting [6]), in assay [1] (setting [7]) and in [1] (setting [8]) was 100% each time. In addition, the “Percentage of flowers” value in [1] (setting [9]) is on record as 100%; in [1] (setting [10]), 100%; in assay [1] (setting [11]), 100%; in assay [1] (setting [12]) it was 100%; in assay [1] (setting [13]) it was 85%; in assay [1] (setting [14]) it was 75%. Also, the “Percentage of flowers” value in assay [1] (setting [15]) is on record as 53%; in [1] (setting [16]) it was 30%; in assay [1] (setting [17]), 4%; in assay [1] (setting [18]) it was 0%. The “delaying flower senescence, compared with STS” value in assay [1] (summary of Table 3) was “generally comparable to or superior to STS”.
On to `O=C(OC[C@H]1O[C@@H](OC(=O)c2cc(O)c(O)c(OC(=O)c3cc(O)c(O)c(O)c3)c2)[C@H](OC(=O)c2cc(O)c(O)c(OC(=O)c3cc(O)c(O)c(O)c3)c2)[C@@H](OC(=O)c2cc(O)c(O)c(OC(=O)c3cc(O)c(O)c(O)c3)c2)[C@@H]1OC(=O)c1cc(O)c(O)c(OC(=O)c2cc(O)c(O)c(O)c2)c1)c1cc(O)c(O)c(OC(=O)c2cc(O)c(O)c(O)c2)c1` [tannic acid], for which, in the assay with apple stalk slices (elicitor 1 μM), the “increased regeneration in relation” value turned out to be 225%.
As for “IAA-C-BSA: indoleacetic acid-C-conjugate with BSA”, the “effectiveness in root induction, comparison” value with plantroots was “somewhat less effective in root induction as IAA-N-BSA, but still better than IAA alone”.
For the compound “IAA-N-BSA: indoleacetic acid-N-conjugate with BSA”, the “maximum of roots per tissue fragment” value in the assay on apple stood at 8 roots per tissue fragment. For the same compound, the “category of relative overall effect on rooting and plant development” value (shortened to “category of relative overall effect”) in the assay with rose (setting [19]) came out at 1; in the assay on rose (rose n. brier), 3; in the assay with chrysanthemum (setting [20]), 1; in the assay on chrysanthemum (chrys. snowdon), 2; in the assay with carnation (carnation m. brilj.), 1; with carnation (carnation tempo), 3. In assay [2], this compound showed an average category of 1.8. For the same compound, the “overall assessment of rooting powders from Table 2” value in assay [2] (in vivo) is “especially suited for recalcitrant plants”.
“IBA-N-BSA: N-conjugate with BSA made with IBA instead of IAA”: the “category of relative overall effect” value in the assay on rose (setting [19]) is given as 2; in the assay on rose (rose n. brier) it was 1; in the assay on chrysanthemum (setting [20]) it was 4; in the assay on chrysanthemum (chrys. snowdon), 1; in the assay with carnation (carnation m. brilj.), 1; in the assay with carnation (carnation tempo), 3. The compound also had an average category in [2] of 2.0.
Take “glucose-acetate-amino-oxyacetic acid [G-A-A]”: in the assay on cut flowers (carnations) (carnation), the effect against aging entry is “effective means against aging”.
Consider “indole butyric acid [IBA, reference compound]”, for which the shoots formed in the assay on tissue explants of rose is given as 2 shoots per 20 tissue explants. The “category of relative overall effect” value with rose (setting [19]) is 3; with rose (rose n. brier), 1; with chrysanthemum (setting [20]), 4; in the assay with chrysanthemum (chrys. snowdon), 1. The compound also returned an average category in assay [2] of 2.25.
“silver thiosulfate [STS, reference compound]”: the “Percentage of flowers” value in [1] (setting [3]), in assay [1] (setting [4]), in assay [1] (setting [5]), in assay [1] (setting [6]), in assay [1] (setting [7]) and in assay [1] (setting [8]) was 100% each time. In addition, the “Percentage of flowers” value in assay [1] (setting [9]) is given as 100%; in assay [1] (setting [10]), 100%; in [1] (setting [11]), 100%; in [1] (setting [12]), 100%; in assay [1] (setting [13]) it was 88%; in assay [1] (setting [14]), 65%. The “Percentage of flowers” value in [1] (setting [15]) is on record as 8%; in assay [1] (setting [16]), 0%; in assay [1] (setting [17]), 0%; in assay [1] (setting [18]), 0%.
